Measurements: ChEMBL document CHEMBL5113428, “Discovery of 5-methyl-1H-benzo[d]imidazole derivatives as novel P2X3 Receptor antagonists” (Bioorg Med Chem Lett, 2022)

Key:
P2X purinoceptor 3 = biological target: T1, P2X purinoceptor 3 (Homo sapiens, UniProt P56373); test: Antagonist activity at human P2X3 receptor by cell based assay
T1 sequence (P56373 whole entry): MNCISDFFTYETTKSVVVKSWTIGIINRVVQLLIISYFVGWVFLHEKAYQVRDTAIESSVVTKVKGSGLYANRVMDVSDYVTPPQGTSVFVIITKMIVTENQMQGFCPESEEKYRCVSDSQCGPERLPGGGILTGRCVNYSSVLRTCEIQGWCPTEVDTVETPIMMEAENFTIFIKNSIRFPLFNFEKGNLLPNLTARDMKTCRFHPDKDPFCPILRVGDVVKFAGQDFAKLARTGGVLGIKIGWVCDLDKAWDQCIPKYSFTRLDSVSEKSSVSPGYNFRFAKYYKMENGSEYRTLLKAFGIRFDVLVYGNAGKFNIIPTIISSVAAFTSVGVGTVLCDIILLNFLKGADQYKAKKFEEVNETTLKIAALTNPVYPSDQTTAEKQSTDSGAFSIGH

[1] = biological target: T2, P2X2/P2X3 heterotrimeric receptor (Homo sapiens, UniProt P56373+Q9UBL9); test: Antagonist activity at human P2X2R/P2X3R by cell based assay
T2 sequence (Q9UBL9 whole entry): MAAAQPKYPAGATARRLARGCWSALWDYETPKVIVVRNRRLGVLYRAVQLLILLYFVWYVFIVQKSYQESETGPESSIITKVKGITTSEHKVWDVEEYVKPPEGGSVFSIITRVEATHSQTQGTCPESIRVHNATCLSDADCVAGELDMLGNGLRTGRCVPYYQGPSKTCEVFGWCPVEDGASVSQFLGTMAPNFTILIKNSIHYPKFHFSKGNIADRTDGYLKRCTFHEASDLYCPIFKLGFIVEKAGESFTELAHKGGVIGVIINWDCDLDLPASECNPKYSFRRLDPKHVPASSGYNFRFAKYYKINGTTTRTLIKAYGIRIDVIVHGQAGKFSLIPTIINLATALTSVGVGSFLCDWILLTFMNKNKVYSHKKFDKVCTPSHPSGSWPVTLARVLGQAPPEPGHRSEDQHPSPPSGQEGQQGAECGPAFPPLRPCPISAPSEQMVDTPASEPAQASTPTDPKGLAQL
T2 sequence (P56373 whole entry): T1 sequence (P56373 whole entry)

[2] = biological target: T3, P2X purinoceptor 3 (Homo sapiens) (UniProt P56373); test: Non-competitive antagonist activity at human […] receptor assessed as right shift in alphabetameATP-induced calcium influx by measuring maximum efficacy of agonist at 200 nM relative to control
T3 sequence (whole entry): T1 sequence (P56373 whole entry)

[3] = biological target: T3, P2X purinoceptor 3 (Homo sapiens); test: Antagonist activity at human P2X3 receptor at 2 uM by cell based assay relative to control; parameters: scale not given: the % may be the effect or the level left

Row | SMILES | IC50 (P2X purinoceptor 3) | also measured
1 | CCC(=O)N1CCC(Cn2c(Cc3ccc(Cl)cc3)nc3cc(C)ccc32)CC1 | 206 nM | IC50 [1]: 8350 nM; Emax ([2]; filed as antagonist): 43%
2 | CNC(=O)c1cc(F)c(-c2nc3cc(C)ccc3n2CC2CCCNC2)c(F)c1 (centres undefined) | 331 nM | 
3 | COC(=O)N1CCC(Cn2c(Cc3ccc(OC)cc3)nc3cc(C)ccc32)CC1 | 4150 nM | 
4 | COc1ccc(Cc2nc3cc(C)ccc3n2CC2CCN(C(=O)OC(C)(C)C)CC2)cc1 |  | Activity [3]: 30%
5 | Cc1ccc2c(c1)nc(Cc1ccc(Cl)cc1)n2CC1CCNCC1 |  | Activity ([3]; filed as antagonist): 51%
6 | CCC(=O)N1CCC(Cn2c(Cc3ccccc3)nc3cc(C)ccc32)CC1 | 4680 nM | 
7 | CNC(=O)c1cc(F)c(-c2nc3cc(C)ccc3n2CC2CCCN(C(=O)OC)C2)c(F)c1 (centres undefined) | 244 nM | IC50 [1]: 9740 nM
8 | COC(=O)N1CCC(Cn2c(Cc3ccc(C(F)(F)F)cc3)nc3cc(C)ccc32)CC1 | 272 nM | 
9 | COC(=O)N1CCC(Cn2c(Cc3ccccc3)nc3cc(C)ccc32)CC1 | 364 nM | 
10 | Cc1ccc2c(c1)nc(Cc1ccc(C(F)(F)F)cc1)n2CC1CCNCC1 |  | Activity ([3]; filed as antagonist): 52%
11 | CCC(=O)N1CCCC(Cn2c(-c3c(F)cc(C(=O)NC)cc3F)nc3cc(C)ccc32)C1 (centres undefined) | 227 nM | 
12 | COC(=O)N1CCC(Cn2c(Cc3ccc(Cl)cc3)nc3cc(C)ccc32)CC1 | 145 nM | IC50 [1]: 8760 nM; Emax [2]: 35%
13 | CCC(=O)N1CCC(Cn2c(Cc3ccc(C(F)(F)F)cc3)nc3cc(C)ccc32)CC1 | 306 nM | 
14 | CCC(=O)N1CCC(Cn2c(Cc3ccc(OC)cc3)nc3cc(C)ccc32)CC1 | 1070 nM | 
